Test results reported in patent US11524962B2, “Substituted pyrrolo[2,3-d]pyrimidines as inhibitors of protein arginine methyl transferase 5 (PRMT5)” (PRELUDE THERAPEUTICS, INCORPORATED, priority 2017, dated 2022).

test system: Symmetric Di-Methyl Arginine (sDMA) marks in Granta-519 cells; test: sDMA Western blot / In Cell Western in Granta-519 cells; type: cell-based; details: Homo sapiens, 72 h; Granta-519, 3 days; read-out: sDMA_Granta IC50
Procedure: Compound titration and cell culture: Compounds were dissolved in DMSO to make 10 mM stock and 3-fold series dilutions were further conducted to make working stocks top at 1 mM. Granta-519 cells were maintained in PRMI 1640 (Corning Cellgro, Catalog #: 10-040-CV) supplemented with 10% v/v FBS (GE Healthcare, Catalog #: SH30910.03) and U-87 MG cells were maintained in DMEM (Corning Cellgro, Catalog #: 10-013-CV) with 10% FBS and 2 mM Glutamin (Corning Cellgro, Catalog #25005CV).
To determine enzyme inhibition IC50 values in Granta-519 and U-87 MG cells using Western Blot analysis. One day before experiment, Granta-519 cells were passaged to a density of 0.5×10^6 cells/ml. U-87 MG cells were trypsinized and 4×10^5 cells were seeded into 6-well plates and allow to grow overnight. The next day, Granta-519 cells were spun down at 1,500 rpm for 4 min, resuspend in fresh medium at 0.5×10^6 cells/ml and 3 mL of culture (1.5×10^6 cells) were seeded into 6 well plate. Eight-point, 3-fold serial dilutions of compound working stocks were added to cells (3 ul, 1:1,000 dilution, DMSO concentration was 0.1%; final top concentration at 1 uM) and incubated for 3 days. Cells incubated with DMSO was used as a vehicle control.
Cells were harvested 3 days later, resuspended in 15 uL PBS, lysed in 4% SDS, and homogenized by passing through homogenizer column (Omega Biotek, Catalog #: HCR003). Total protein concentrations were determined by BCA assay (ThermoFisher Scientific, Catalog #: 23225). Lysates were mixed with 5× Laemmli buffer and boiled for 5 min. Forty ug of total protein was separated on SDS-PAGE gels (Bio-Rad, catalog #: 4568083, 4568043), transferred to PVDF membrane, blocked with 5% dry milk (Bio-Rad, Catalog #: 1706404) in TBS with 0.1% v/v Tween 20 (TBST) for 1 hour at room temperature (RT), and incubated with primary antibodies (sDMA: Cell signaling, Catalog #: 13222, 1:3,000; β-Actin: sigma, Catalog #: 1:5,000) in 5% dry milk in TBST at 4° C. overnight. The next day, membranes were washed with TBST, 5×5 min, and incubated with HRP conjugated seconded antibody (GE Healthcare; Catalog #: NA934-1ML, NA931-1ML; 1:5,000) for 2 hours at RT, followed by 5×5 min washes with TBST, and incubation with ECL substrates (Bio-Rad, Catalog #: 1705061, 1705062). Chemiluminescent signal was captured with Fluochem HD2 imager (Proteinsimple). SmD3me2s bands were quantified by ImageJ. Signals were normalized to β-Actin and DMSO control. IC50 values were calculated using Graphpad Prism ([Inhibitor]vs. normalized response−Variable slope).
sDMA In Cell Western procedure (ICW): Granta-519 cells were passaged to a density of 0.5×10^6 cells/ml one day before experiments and allowed to grow overnight. The next day (day 0), cells were spun down at 1,500 rpm for 4 min, resuspended in fresh medium to 0.2×10^6 cells/ml and 100 uL of cells were added to 384-well plates using a Multidrop Combi Dispenser (ThermoFisher). A series of 9-point, 3-fold serial dilutions of compounds were prepared and dispensed into wells from a 1 mM stock solution using a TECAN digital dispenser (D300e) and the DMSO % concentration was normalized in each well to 0.1%. DMSO and 3 uM of reference compounds were used as negative (minimum inhibition) and positive (maximum inhibition) controls, respectively. After 3 days of incubation, cells were first resuspended and then 80 ul of cells were transferred to a Poly-D-lysine 384-well plate (Corning, Catalog #354663), followed by 30 minutes incubation at room temperature (RT) and 5 additional hours of incubation at 37° C. […]

| SMILES | IC50 |
| --- | --- |
| Cc1ncnc2c1ccn2[C@@H]1O[C@H]([C@H](O)c2nc3c(s2)CCC3)[C@@H](O)[C@H]1O [Example 52, (2S,3S,4R,5R)-2-((S)-(5,6-dihydro-4H-cyclopenta[d]thiazol-2-yl)(hydroxy)methyl)-5-(4-methyl-7H-pyrrolo[2,3-d]pyrimidin-7-yl)tetrahydrofuran-3,4-diol] | 1700 nM |
| Nc1ncnc2c1c(Br)cn2[C@@H]1O[C@H]([C@H](O)c2ccc3c(c2)CC3)[C@@H](O)[C@H]1O [Example 36, (2R,3R,4S,5R)-2-(4-amino-5-bromo-7H-pyrrolo[2,3-d]pyrimidin-7-yl)-5-((R)-bicyclo[4.2.0]octa-1,3,5-trien-3-yl(hydroxy)methyl)tetrahydrofuran-3,4-diol] | 3780 nM |
| OCCc1ncnc2c1ccn2[C@@H]1O[C@H]([C@H](O)c2ccc3c(c2)CC3)[C@@H](O)[C@H]1O [Example 53, (2R,3S,4R,5R)-2-((R)-bicyclo[4.2.0]octa-1,3,5-trien-3-yl(hydroxy)methyl)-5-(4-(2-hydroxyethyl)-7H-pyrrolo[2,3-d]pyrimidin-7-yl)tetrahydrofuran-3,4-diol] | 5240 nM |
| Cc1ncnc2c1ccn2[C@@H]1O[C@H]([C@H](O)c2ccc3c(c2)CC3)[C@@H](O)[C@H]1O [Example 11, (2R,3S,4R,5R)-2-((R)-bicyclo[4.2.0]octa-1(6),2,4-trien-3-yl(hydroxy)methyl)-5-(4-methyl-7H-pyrrolo[2,3-d]pyrimidin-7-yl)tetrahydrofuran-3,4-diol] | 33 nM |

The remaining molecules from weak to strong by IC50, led by results:

| IC50 | SMILES |
| --- | --- |
| 923 nM | O[C@@H]1[C@H](O)[C@@H]([C@H](O)c2ccc3c(c2)CC3)O[C@H]1n1ccc2c(Cl)ncnc21 [Example 56, (2R,3S,4R,5R)-2-((R)-bicyclo[4.2.0]octa-1(6),2,4-trien-3-yl(hydroxy)methyl)-5-(4-chloro-7H-pyrrolo[2,3-d]pyrimidin-7-yl)tetrahydrofuran-3,4-diol] |
| 759 nM | CNc1ncnc2c1ccn2[C@@H]1O[C@H]([C@H](O)c2ccc3c(c2)CC3)[C@@H](O)[C@H]1O [Example 54, (2R,3S,4R,5R)-2-((R)-bicyclo[4.2.0]octa-1(6),2,4-trien-3-yl(hydroxy)methyl)-5-(4-(methylamino)-7H-pyrrolo[2,3-d]pyrimidin-7-yl)tetrahydrofuran-3,4-diol] |
| 38 nM | Nc1ncnc2c1c(F)cn2[C@@H]1O[C@H]([C@H](O)c2ccc3c(c2)CC3)[C@@H](O)[C@H]1O [Example 6, (2R,3R,4S,5R)-2-(4-amino-5-fluoro-7H-pyrrolo[2,3-d]pyrimidin-7-yl)-5-((R)-bicyclo[4.2.0]octa-1(6),2,4-trien-3-yl(hydroxy)methyl)tetrahydrofuran-3,4-diol] |
| 22 nM | C[C@@](O)(c1ccc2c(c1)CC2)[C@H]1O[C@@H](n2ccc3c(N)ncnc32)[C@H](O)[C@@H]1O [Example 1, (2R,3R,4S,5S)-2-(4-amino-7H-pyrrolo[2,3-d]pyrimidin-7-yl)-5-((R)-1-(bicyclo[4.2.0]octa-1(6),2,4-trien-3-yl)-1-hydroxyethyl)tetrahydrofuran-3,4-diol] |
| 20 nM | Nc1ncnc2c1ccn2[C@@H]1O[C@H]([C@H](O)c2ccc3c(c2)CC3)[C@@H](O)[C@H]1O [Example 2, (2R,3R,4S,5R)-2-(4-amino-7H-pyrrolo[2,3-d]pyrimidin-7-yl)-5-((R)-bicyclo[4.2.0]octa-1(6),2,4-trien-3-yl(hydroxy)methyl)tetrahydrofuran-3,4-diol] |

same assay, conditions: Homo sapiens, Granta-519; initial testing; read-out: sDMS (Granta) IC50

| IC50 | SMILES |
| --- | --- |
| 9 nM | C[C@@](O)(c1ccc2c(c1)CC2)[C@H]1O[C@@H](n2ccc3c(N)ncnc32)[C@H](O)[C@@H]1O [Example 1, (2R,3R,4S,5S)-2-(4-amino-7H-pyrrolo[2,3-d]pyrimidin-7-yl)-5-((R)-1-(bicyclo[4.2.0]octa-1(6),2,4-trien-3-yl)-1-hydroxyethyl)tetrahydrofuran-3,4-diol] |
